Experimental data reported in PMC11351612, “Heteronuclear Complexes with Promising Anticancer Activity against Colon Cancer” (Biomedicines, 2024).
Where two headings read alike, the source gives them in different places.

Legend:
[1] = system: differentiated Caco-2/PD7 cells; assay: Cell viability of differentiated (enterocyte-like) Caco-2/PD7 cells; type: cell-based, human
Description: For cell viability studies of differentiated (enterocyte-like) cells, Caco-2/PD7 cells were seeded on 96-well plates at a density of 4 × 10^3 cells/well and incubated for approximately 10–15 days, changing the culture medium every 3 days, up to reaching confluence—the moment in which the cells were treated with the complexes at concentrations equal to their mean IC50 and 2 × IC50 values.
It is well known that the Caco-2 cell line undergoes spontaneous differentiation into enterocytic-like cells when it reaches confluency. As a result, these cells become polarised, expressing apical and basolateral surfaces with established tight junctions. This allowed for the evaluation of the cytotoxic impact of the complexes on differentiated cells (acting as noncarcinogenic) and a comparison with the viability of undifferentiated cells. Thus, the toxicity of the two heteronuclear compounds has been studied by cell viability experiments by treatment of Caco-2/PD7 cells after differentiation with complexes 1 and 2 at the corresponding concentrations equivalent to IC50 and 2 × IC50 values for 72 h. The results expressed as the % of cell viability observed after treatment with the complexes (or 100% for non-treated control cells) are summarised in Figure S16 (Supplementary Materials). […] However, the cell viability is around 90% even when the cells are treated with double the IC50 concentration.

[2] = system: pIRES2-EGFP (5308 pb) plasmid DNA; design: method as in PMID 24732792, PMID 3707609; settings: cited from earlier work
[3] = system: Caco-2/TC7 cells; assay: MTT cell proliferation assay, Caco-2/TC7; type: cell-based, human; settings: 72 h, mean ± SE of at least three determinations
Description: (§1) Cell culture. Human colon cancer Caco-2 cells (PD7 and TC7 clones) were kindly provided by Dr. Edith Brot-Laroche (Université Pierre et Marie Curie-Paris 6, UMR S 872, Les Cordeliers, Lyon, France) and grown in Dulbecco’s Modified Eagles medium (DMEM) (Gibco Invitrogen, Paisley, UK) supplemented with 20% foetal bovine serum (FBS), 1% non-essential amino acids, 1% streptomycin (1000 μg/mL), 1% penicillin (1000 μg/mL), and 1% amphotericin (250 U/mL). Caco-2 cells were maintained at 37 °C in a humidified atmosphere at 5% CO2.
(§2) Cell proliferation assay. Cell proliferation was measured using the 3-(4,5-dimethyl-2-thiazoyl)-2,5-diphenyltetrazolium bromide (MTT) assay, as previously described. Caco-2/TC7 cells were seeded in a 96-well plate at a density of 4000 cells/well and grown for 24 h before being treated with each complex or DMSO (used as control). After 72 h of incubation with the complexes, 10 μL of MTT (5 mg/mL) were added and incubation was continued at 37 °C for 3 h. Inversion removed the medium and 100 μL of DMSO were added to each well. Absorbance at 560 nm, proportional to many living cells, was measured by spectrophotometry (SPECTROstar Nano, BMG LABTECH, Ortenberg, Germany) and converted into a percentage (%) of growth inhibition.
(§3) The antiproliferative effects of the mononuclear and heteropolinuclear complexes were tested on two different Caco-2 cancer cell lines (PD7 and […]). […] Caco-2 cells of both PD7 and TC7 clones were exposed to increasing concentrations of the assayed compounds through dose–response/cell viability analysis. The results in terms of the IC50 parameter (Table 4) were obtained by using the MTT protocol.

[4] = Distribution coefficient (logP7.4), n-octanol-water shake-flask; type: physicochemical; settings: n-octanol / buffered saline pH 7.4, shake-flask
Description: Distribution coefficient (logP7.4). The n-octanol-water coefficients of the complexes were determined using a shake-flask method, as previously reported. Briefly, buffered-saline distilled water (100 mL, phosphate buffer [PO4^3−] = 10 mM, [NaCl] = 0.15 M, pH 7.4) and n-octanol (100 mL) were shaken together for 72 h to allow for saturation of both phases. Approximately 1 mg of the complexes was dissolved in 5 mL of the aqueous phase and 5 mL of the organic phase was added, mixing them for 10 min. The resulting emulsion was centrifuged to separate the phases. The concentration of the compounds in each phase was determined using UV-vis absorbance spectroscopy. The logP7.4 was defined as log{[compound(organic)]/[compound(aqueous)]}.

[5] = system: Caco-2/PD7 cells; assay: MTT cell proliferation assay, Caco-2/PD7; type: cell-based, human; settings: MTT, 72 h; mean ± SE of at least three determinations
Description: as §1, §2, §3

[6] = system: Caco-2/PD7 cells; assay: Annexin V/propidium iodide apoptosis assay, Caco-2/PD7; type: cell-based, human; settings: Caco-2/PD7, annexin V/PI
Description: Study of cell death. After the appropriate incubation, cells were collected and stained with annexin V-FTIC, according to the manufacturer’s instructions. A negative control was prepared, containing unreacted cells to define the basal level of apoptotic and necrotic or dead cells. After incubation, the cells were transferred to flow-cytometry tubes and washed twice with temperate phosphate-buffered saline (PBS), suspended in 100 μL annexin V binding buffer (10 mM Hepes/NaOH, pH 7.4, 140 mM NaCl, 2.5 mM CaCl2), then 5 μL of annexin V-FITC, and 5 μL of PI was added to each 100 μL of cell suspension. After incubation for 15 min at room temperature in the dark, 400 μL of 1× annexin binding buffer was added and analysed by flow cytometry within one hour. The signal intensity was measured using a FACSARIA BD and analysed using FASCDIVA BD.
This inhibition of apoptosis produces a fast growth and proliferation of cancerous cells. The population of early and late apoptotic cells increased to 35% after treatment with complex 1 in comparison with the vehicle-treated cells (12%). […] Additionally, the effect observed after treating the cells with a dosage equal to the IC50 concentration is time-dependent. […]

[7] = system: pIRES2-EGFP (5308 pb) plasmid DNA; assay: Gel electrophoretic mobility of plasmid DNA; type: binding; settings: metal-to-base pair ratios 0.5, 1, 2; 0.8% agarose gel
Description: Adducts with pIRES2-EGFP (5308 pb) plasmid DNA (Catalog #6029-1) were prepared by adding the required volume of a freshly prepared solution of metal complexes in MilliQ water. The concentration of pIRES2-EGFP in the reaction mixture was 117 ng/µL, and the complexes’ concentration was varied to give different metal-to-base pair stoichiometries (0.5, 1 and 2). The mobility of the metal complex-treated pIRES2-EGFP samples was analysed by gel electrophoresis on a 0.8% (w/v) agarose gel (Boehringer-Mannheim, Mannheim, Germany) at […] at 25 °C in Tris-acetate/EDTA buffer. The gel was stained for 30 min in […] (w/v) ethidium bromide and the bands were visualised with a UVP gel scanner.
In addition, the interaction of both complexes with DNA was also studied by their ability to modify the electrophoretic mobility of the pIRES2-EGFP (5308 pb) plasmid DNA and compared to cisplatin (Figure 7).

[8] = system: ct-DNA (calf thymus DNA); assay: ct-DNA binding constant by UV-vis titration (Benesi-Hildebrand); settings: complex 20 μM, ct-DNA 0-100 μM, Tris-HCl pH 7.2
Description: A ctDNA solution was prepared at 1 mg/mL in tris (tris(hydroxymethyl)aminomethane)/HCl (0.1 M, pH 7.2). Then, the purity of the ctDNA was checked, recording its spectra and calculating the absorption ratio between 260 and 280 nm. This experiment also provides the means to calculate the concentration of ctDNA using the Beer–Lambert formula, with the extinction coefficient of 6600 M^−1cm^−1. Every experiment was corrected with a baseline of the buffer and the corresponding concentration of dimethylsulfoxide. The addition of DNA solution was performed in both assay and reference cuvettes. Then, the binding constant was calculated using the modified Benesi–Hildebrand equation. Kb is the binding constant, εf, εa, and εb are the extinction coefficients for the free compound, the apparent coefficient (calculated as the ratio of the absorbance and the concentration of the compound in the experiment), and the compound–DNA complex, respectively. […]
The binding capabilities of [Cu{Au(Spy)(PTA)}2]PF6 (1) and [Au(Spy)(PTA)] were estimated towards […] by recording the electronic absorption spectra throughout their interaction. The absorbance measurements were performed by successive additions of a DNA stock solution (10, 20, 30, 40 up to 100 μL) which afforded the final concentration of ct-DNA (from 0 to 100 μM) while maintaining the concentration of the complexes (20 μM). […]

[9] = system: A2780/R; design: method as in PMID 19937669; settings: cisplatin-resistant ovarian cancer cell line; cited from earlier work
[10] = system: A2780/S; design: method as in PMID 19937669; settings: ovarian cancer cell line; cited from earlier work
[11] = system: ct-DNA (calf thymus DNA); design: method as in PMID 20926136; settings: cited from earlier work

Question: Which “Cell viability of differentiated Caco-2 cells at 2 × IC50” value ([1]; differentiated Caco-2/PD7, concentration = 2 × IC50, 72 h) does the source give for [Zn{Au(PTA)(Spy)}2]Cl2 [compound 3] here?
Answer: 93.18 ± 11.99%

Question: And the “Cell viability of differentiated Caco-2 cells at IC50” value ([1]; differentiated Caco-2/PD7, concentration = IC50, 72 h)?
Answer: 98.87 ± 21.63%

Question: With `CC(=O)OC[C@H]1O[C@@H]([S-])[C@H](OC(C)=O)[C@@H](OC(C)=O)[C@@H]1OC(C)=O.CCP(CC)CC.[Au+]` [Auranofin, reference compound] as the compound, how does the “Reactivity with DNA” value [2] read?
Answer: lack of reactivity

Question: What about the IC50 [3] of the same compound?
Answer: 2100 ± 400 nM

Question: What about the logP [4] of the same compound?
Answer: −2.53

Question: What about the IC50 [5] of the same compound?
Answer: 1800 ± 100 nM

Question: And the “Cell death stage after treatment” value [6]?
Answer: most cells being found in late-stage apoptosis and necrosis

Question: Which IC50 [3] does the source give for `c1ccc([S][Au][P]23CN4CN(CN(C4)C2)C3)nc1` [[Au(Spy)(PTA)]] here?
Answer: 2030 ± 20 nM

Question: What about the “Effect on electrophoretic mobility of plasmid DNA” value [7] of the same compound?
Answer: does not affect the mobility

Question: And the “DNA binding constant Kb” value [8]?
Answer: 90600 M⁻¹

Question: What about the IC50 [9] of the same compound?
Answer: 8200 nM

Question: And the IC50 [10]?
Answer: 9600 nM

Question: And the IC50 [5]?
Answer: 2640 ± 250 nM

Question: With `N.N.[Cl][Pt][Cl]` [cisplatin] as the compound, how does the “Effect on electrophoretic mobility of plasmid DNA” value [7] read?
Answer: greatly alters the electrophoretic mobility

Question: For `CC[n+]1c(-c2ccccc2)c2cc(N)ccc2c2ccc(N)cc21` [EB, ethidium bromide], which “DNA binding constant Kb” value [11] is on record?
Answer: 1.23(±0.07) × 10^5 M^−1
